Test system: 883617-216-R-J1-PDC tumor spheroids, viability
Assay: Anticancer human tumor 883617-216-R-J1-PDC patient-derived bladder carcinoma cell line growth inhibition [PI3K]
Settings: spheroids with HUVEC and MSC; for IC50: curve of first compound; for viability, T/C: stronger effect = lower value
How it was run: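 Agents were dosed from a top concentration near clinical Cmax (otherwise 10 microM) in half-log decrements, alone or combined with PI3K inhibitors. The spheroids contain tumor cells plus endothelial (HUVEC) and MSC stroma; viability is measured.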
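Further: spheroids exposed to agents for 7 days before the viability read.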

## Cn1cnc2c(F)c(Nc3ccc(Br)cc3Cl)c(C(=O)NOCCO)cc21 + COc1c(OCCCN2CCOCC2)ccc2c3n(c(=NC(=O)c4cnc(N)nc4)nc12)CCN3
Second compound 0.00316 µM
  IC50: 23.6 nM
Second compound 0.01 µM
  IC50: < 9.49 nM
Second compound 0.0316 µM
  IC50: < 9.49 nM
Second compound 0.1 µM
  IC50: < 9.49 nM
Second compound 0.316 µM
  IC50: < 9.49 nM
Second compound 1 µM
  IC50: < 9.49 nM
Second compound 0.00316 µM, first compound 0.00949 µM
  viability, T/C: 59.8%
Second compound 0.00316 µM, first compound 0.03 µM
  viability, T/C: 43.9%
Second compound 0.00316 µM, first compound 0.0949 µM
  viability, T/C: 37.1%
Second compound 0.00316 µM, first compound 0.3 µM
  viability, T/C: 39.7%
Second compound 0.00316 µM, first compound 0.949 µM
  viability, T/C: 22.8%
Second compound 0.00316 µM, first compound 3 µM
  viability, T/C: 18.9%
Second compound 0.01 µM, first compound 0.00949 µM
  viability, T/C: 44.2%
Second compound 0.01 µM, first compound 0.03 µM
  viability, T/C: 42.5%
Second compound 0.01 µM, first compound 0.0949 µM
  viability, T/C: 27%
Second compound 0.01 µM, first compound 0.3 µM
  viability, T/C: 21.2%
Second compound 0.01 µM, first compound 0.949 µM
  viability, T/C: 22.8%
Second compound 0.01 µM, first compound 3 µM
  viability, T/C: 15.2%
Second compound 0.0316 µM, first compound 0.00949 µM
  viability, T/C: 23.1%
Second compound 0.0316 µM, first compound 0.03 µM
  viability, T/C: 20.8%
Second compound 0.0316 µM, first compound 0.0949 µM
  viability, T/C: 16.4%
Second compound 0.0316 µM, first compound 0.3 µM
  viability, T/C: 14.1%
Second compound 0.0316 µM, first compound 0.949 µM
  viability, T/C: 11.8%
Second compound 0.0316 µM, first compound 3 µM
  viability, T/C: 7.94%
Second compound 0.1 µM, first compound 0.00949 µM
  viability, T/C: 9.95%
Second compound 0.1 µM, first compound 0.03 µM
  viability, T/C: 7.44%
Second compound 0.1 µM, first compound 0.0949 µM
  viability, T/C: 5.9%
Second compound 0.1 µM, first compound 0.3 µM
  viability, T/C: 4.34%
Second compound 0.1 µM, first compound 0.949 µM
  viability, T/C: 3.93%
Second compound 0.1 µM, first compound 3 µM
  viability, T/C: 2.03%
Second compound 0.316 µM, first compound 0.00949 µM
  viability, T/C: 3.44%
Second compound 0.316 µM, first compound 0.03 µM
  viability, T/C: 2.07%
Second compound 0.316 µM, first compound 0.0949 µM
  viability, T/C: 1.3%
Second compound 0.316 µM, first compound 0.3 µM
  viability, T/C: 1.34%
Second compound 0.316 µM, first compound 0.949 µM
  viability, T/C: 0.72%
Second compound 0.316 µM, first compound 3 µM
  viability, T/C: 0.47%
Second compound 1 µM, first compound 0.00949 µM
  viability, T/C: 1.2%
Second compound 1 µM, first compound 0.03 µM
  viability, T/C: 0.53%
Second compound 1 µM, first compound 0.0949 µM
  viability, T/C: 0.38%
Second compound 1 µM, first compound 0.3 µM
  viability, T/C: 0.39%
Second compound 1 µM, first compound 0.949 µM
  viability, T/C: 0.18%
Second compound 1 µM, first compound 3 µM
  viability, T/C: 0.21%

## C[C@@H](NC(=O)c1ncnc(N)c1Cl)c1ncc(C(=O)Nc2cc(C(F)(F)F)c(Cl)cn2)s1 + CC(Nc1ncnc2nc[nH]c12)c1cc2cccc(Cl)c2c(=O)n1-c1ccccc1
Second compound 0.0316 µM
  IC50: > 10000 nM
Second compound 0.1 µM
  IC50: > 10000 nM
Second compound 0.316 µM
  IC50: > 10000 nM
Second compound 1 µM
  IC50: > 10000 nM
Second compound 3.16 µM
  IC50: > 10000 nM
Second compound 10 µM
  IC50: < 31.6 nM
Second compound 0.0316 µM, first compound 0.0316 µM
  viability, T/C: 88.8%
Second compound 0.0316 µM, first compound 0.1 µM
  viability, T/C: 87.1%
Second compound 0.0316 µM, first compound 0.316 µM
  viability, T/C: 81.4%
Second compound 0.0316 µM, first compound 1 µM
  viability, T/C: 99.8%
Second compound 0.0316 µM, first compound 3.16 µM
  viability, T/C: 78.1%
Second compound 0.0316 µM, first compound 10 µM
  viability, T/C: 64.8%
Second compound 0.1 µM, first compound 0.0316 µM
  viability, T/C: 90%
Second compound 0.1 µM, first compound 0.1 µM
  viability, T/C: 85.6%
Second compound 0.1 µM, first compound 0.316 µM
  viability, T/C: 91.3%
Second compound 0.1 µM, first compound 1 µM
  viability, T/C: 91.8%
Second compound 0.1 µM, first compound 3.16 µM
  viability, T/C: 81.2%
Second compound 0.1 µM, first compound 10 µM
  viability, T/C: 58.2%
Second compound 0.316 µM, first compound 0.0316 µM
  viability, T/C: 85.5%
Second compound 0.316 µM, first compound 0.1 µM
  viability, T/C: 96.2%
Second compound 0.316 µM, first compound 0.316 µM
  viability, T/C: 90.3%
Second compound 0.316 µM, first compound 1 µM
  viability, T/C: 74%
Second compound 0.316 µM, first compound 3.16 µM
  viability, T/C: 78.4%
Second compound 0.316 µM, first compound 10 µM
  viability, T/C: 76.2%
Second compound 1 µM, first compound 0.0316 µM
  viability, T/C: 80.3%
Second compound 1 µM, first compound 0.1 µM
  viability, T/C: 82.1%
Second compound 1 µM, first compound 0.316 µM
  viability, T/C: 90.4%
Second compound 1 µM, first compound 1 µM
  viability, T/C: 74.4%
Second compound 1 µM, first compound 3.16 µM
  viability, T/C: 75.8%
Second compound 1 µM, first compound 10 µM
  viability, T/C: 50.1%
Second compound 3.16 µM, first compound 0.0316 µM
  viability, T/C: 58.3%
Second compound 3.16 µM, first compound 0.1 µM
  viability, T/C: 56.5%
Second compound 3.16 µM, first compound 0.316 µM
  viability, T/C: 60%
Second compound 3.16 µM, first compound 1 µM
  viability, T/C: 58.2%
Second compound 3.16 µM, first compound 3.16 µM
  viability, T/C: 65.2%
Second compound 3.16 µM, first compound 10 µM
  viability, T/C: 51.7%
Second compound 10 µM, first compound 0.0316 µM
  viability, T/C: 36.9%
Second compound 10 µM, first compound 0.1 µM
  viability, T/C: 43.9%
Second compound 10 µM, first compound 0.316 µM
  viability, T/C: 45.8%
Second compound 10 µM, first compound 1 µM
  viability, T/C: 44.6%
Second compound 10 µM, first compound 3.16 µM
  viability, T/C: 55.7%
Second compound 10 µM, first compound 10 µM
  viability, T/C: 40.4%

— PubChem BioAssay AID1963973 (Molecular Pharmacology Branch, DTP, NCI, 2024)
